From US6482827B1, “Matrix metalloproteinase inhibitors” (Pharmacia & Upjohn S.p.A., priority 1997, dated 2002)
In brackets after ≈: the same amount, converted by molar mass. Each block holds one molecule with its values, some of them ahead of it.

Columns and labels:
[1] = molecular target: T1, Human collagenase (MMP-1) (Homo sapiens, UniProt P03956); test: Biochemical assay (Protocol A), Ki at steady state, MMP-1; settings: preincubation, 37° C., pH=7.4, read-out: Ki at steady state (Ki*) for inhibition of MMP-1
T1 sequence (P03956 101-269): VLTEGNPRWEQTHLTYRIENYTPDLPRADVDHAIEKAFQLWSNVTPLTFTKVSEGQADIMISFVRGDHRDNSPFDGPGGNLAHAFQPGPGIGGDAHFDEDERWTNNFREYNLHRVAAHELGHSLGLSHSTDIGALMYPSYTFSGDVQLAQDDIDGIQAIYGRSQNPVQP
Method: (§1) Human gelatinase-A (MMP-2) was obtained as pro-enzyme (72 kDa) and was activated with 1 mM 4-aminophenylmercuric acetate for 30 min at 37° C. immediately prior to use. Human stromelysin-1-255 (MMP-3) was obtained as a recombinant pro-enzyme isolated from E. coli and activated by heat (1 h, 55° C.).
(§2) The substrate was the commercial quenched-fluorescence peptide Mca-Pro-Leu-Gly-Leu-Dpa-Ala-Arg-NH2, that is (7-methoxycoumarin4-yl)Acetyl-Pro-Leu-Glv-Leu-(3-[2,4-dinitrophenyl]-L-2,3-diamino-propionyl)-Ala-Arg-NH2 (C. G. Knight et al., FEBS Lett.296:263, 1992). The enzymes cleave at the Gly-Leu bond, removing the internally quenching Dpa group. Release of the highly fluorescent peptide Mca-Pro-Leu was followed fluorimetrically at 37° C. using a Perkin Elmer LS-50 Fluorescence Spectrophotometer fitted with a thermostatted four position stirring cell changer. The excitation wavelength was set at 326 nm (bandwidth 5 nm) and the emission at 392 nm (bandwidth 20 nm). Km values of this substrate for the three MMP's is 70 μM or more (Knight et al., reference above). Substrate concentration was 2 μM in the tests, so that we could approximate to unit the term (1+[substrate]/KM) in calculations. The substrate was stable for over 60 minutes in the assay conditions, giving no appreciable increment of fluorescence. Full response was adjusted against 200 nM Mca-Pro-Leu-OH (the released fluorescent peptide) and the instrument was calibrated in the range 0-100 nM Mca-Pro-Leu-OH, corresponding to 0-5% extent of hydrolysis of the 2 μM substrate. The aqueous assay buffer was 50 mM Tris/HCl pH=7.4 containing 0.15 M NaCl, 10 mM CaCl2, 0.01 mM ZnCl2 and 0.05% Brij 35. The concentration of the activated enzyme was determined by titration against representative inhibitors described in the literature and synthesized in house: Roche Ro31-9790 (N. G. Knebel et al., J. Chromatogr. B 673:213, 1995) for MMP-1, and Celltech CT-1418 (compound 1 in S. K. Chander, J. Pharm. Sci. 84:404, 1995) for MMP-2 and MMP-3. Enzyme concentrations in the tests were set at 1.0 nM for MMP-1, 0.04 nM for MMP-2, and 3.0 nM for M-3. Under our assay conditions, we measured keat/KM values of 26900, 669000 and 9740 1/(M×s) for MMP-1, MMP-2 and MMP-3, respectively. All the three enzymes were found stable for over three hours in the assay conditions.
(§3) The inhibition constant for compounds of the present invention was measured at steady state (Ki*; see J. F. Morrison and C. T. Walsh, Adv. Enzymol. Relat. Areas Mol. Biol. 61:201, 1988), upon preincubation experiment, by measuring V0, the initial rate in the absence of inhibitor, and Vs, the steady-state velocity, at different concentrations of inhibitors in the region of their enzyme-inhibitor dissociation constants.
(§4) On a routine basis, 1.94 mL of assay buffer was pre-heated at 37° C. in a vial, 0.02 mL of inhibitor in DMSO (or DMSO only), and 0.02 ml of 100 nM MMP-1 or 4 nM MMP-2 or 300 nM MMP-3 were added, mixed, and the vial was held at 37° C. for 5-180 minutes. Then 0.02 ml of 0.2 mM substrate was added, mixed and transferred into a pre-heated cell. The sample was allowed to equilibrate in the cuvette for 3-5 min at 37° C. against small changes in temperature and changes in the enzyme-inhibitor equilibria related to addition of substrate. After that, the linear increase of fluorescence was monitored over 3-5 min, and the slope (Vo or Vs) was obtained. Inhibitor concentrations were varied to collect data over Vs/Vo ratio ranging from 0.05 to 0.95. The values of Ki* were calculated by nonlinear weighted regression to the tight-binding equation according to Morrison and Walsh above:
(§5) Vs/Vo=[1/(2×Et)]×SQR[(Ki*+It−Et)^2+4×Ki*×Et]−(Ki*+It−Et)
(§6) wherein Et is the total enzyme concentration, and It is the total inhibitor concentration. The following Table I lists Ki* obtained for some representative examples: […]

[2] = molecular target: T2, Human gelatinase-A (MMP-2) (Homo sapiens, UniProt P08253); test: Biochemical assay (Protocol A), Ki at steady state, MMP-2; settings: preincubation, 37° C., pH=7.4, read-out: Ki at steady state (Ki*) for inhibition of MMP-2
T2 sequence (P08253 110-660): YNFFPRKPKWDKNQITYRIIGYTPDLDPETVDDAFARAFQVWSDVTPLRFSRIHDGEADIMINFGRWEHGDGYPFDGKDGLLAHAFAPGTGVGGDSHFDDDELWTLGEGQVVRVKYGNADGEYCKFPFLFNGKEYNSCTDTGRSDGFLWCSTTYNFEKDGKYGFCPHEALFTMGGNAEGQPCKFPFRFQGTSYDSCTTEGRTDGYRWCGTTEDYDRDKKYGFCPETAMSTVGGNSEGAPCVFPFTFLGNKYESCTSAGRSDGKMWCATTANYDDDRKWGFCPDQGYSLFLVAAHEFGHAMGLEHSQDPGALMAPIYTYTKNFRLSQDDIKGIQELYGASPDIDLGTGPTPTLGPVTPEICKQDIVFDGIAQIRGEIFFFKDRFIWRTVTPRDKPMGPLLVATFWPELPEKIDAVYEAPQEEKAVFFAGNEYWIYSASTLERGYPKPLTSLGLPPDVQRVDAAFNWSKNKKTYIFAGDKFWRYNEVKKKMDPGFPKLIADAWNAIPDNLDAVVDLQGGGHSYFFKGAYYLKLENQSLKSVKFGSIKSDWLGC
Method: as §1, §2, §3, §4, §5, §6

[3] = molecular target: T3, Human stromelysin-1-255 (MMP-3) (Homo sapiens, UniProt P08254); test: Biochemical assay (Protocol A), Ki at steady state, MMP-3; settings: preincubation, 37° C., pH=7.4, read-out: Ki at steady state (Ki*) for inhibition of MMP-3
T3 construct: host or cells: E. coli
Method: as §1, §2, §3, §4, §5, §6

[4] = Aqueous solubility; assay type: physicochemical; settings: 25° C.; for solubility: water
[5] = PK parameters in rats, iv route; settings: rat, in vivo, 10-15 mg/kg
Method: As a further example, Table 3 reports clearance and AUC values measured after intravenous administration to rats of a […] of some representative compounds of the present invention.

[6] = PK parameters, oral route, rat; assay type: in vivo; settings: 10-15 mg/kg; for bioavailability: read-out: % F (oral bioavailability)
Method: (§7) As an additional example, Table 4 reports the maximum plasma concentration (Cmax) and oral bioavailability (% F; calculated from dose-normalised ratio of oral to i.v. mean AUC values) after oral administration to rats or cynomolgus monkeys of a […] of some representative compounds of the present invention.

[7] = PK parameters, oral route, cynomolgus monkey; assay type: in vivo; settings: 10-15 mg/kg
Method: as §7

[8] = plasma, dose-normalised ratio of oral to i.v. mean AUC
[9] = dose-normalised ratio of oral to i.v. mean AUC

T3 sequence (P08254 100-255 limits assumed): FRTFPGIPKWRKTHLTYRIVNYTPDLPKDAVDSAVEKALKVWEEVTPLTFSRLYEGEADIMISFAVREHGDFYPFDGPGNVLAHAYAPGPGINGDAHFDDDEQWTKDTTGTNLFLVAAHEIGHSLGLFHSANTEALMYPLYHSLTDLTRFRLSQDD

Ki [1]: 70 nM
Ki [2]: 250 nM
Ki [3]: 720 nM
solubility ([4]; Conditions A): 4000 µg/mL (≈ 9.06 mM)
SMILES: COc1ccc(S(=O)(=O)N[C@H](C(=O)NO)[C@@H](CC(C)C)C(=O)N2CCCCC2)cc1 [Example 7, (4-Hydroxyamino-3S-(4-methoxyphenylsulfonyl)amino-2R-isobutyl)succinyl-piperidin-amide]

Ki [1]: 180 nM
Ki [2]: 340 nM
Ki [3]: 2200 nM
AUC [5]: 11100 ng·h/mL
clearance [5]: 24 mL/min/kg
bioavailability [6, 8]: 28%
Cmax ([6]; plasma, read-out: Cmax): 2120 ng/mL
SMILES: CC(C)C[C@@H](C(=O)N1CCOCC1)[C@H](N)C(=O)NO [Example 10, (3S-Amino-4-hydroxyamino-2R-isobutyl)succinyl-morpholinamide]

Ki [1]: 41 nM
Ki [2]: 190 nM
Ki [3]: 380 nM
AUC [5]: 6580 ng·h/mL
clearance [5]: 39 mL/min/kg
bioavailability [6, 8]: 21%
Cmax ([6]; plasma, read-out: Cmax): 2440 ng/mL
SMILES: Cc1ccc(S(=O)(=O)N[C@H](C(=O)NO)[C@@H](CC(C)C)C(=O)N2CCOCC2)cc1 [Example 12, (4-Hydroxyamino-2R-isobutyl-3S-(4-toluenesulfonyl)amino)succinyl-morpholinamide]

Aqueous solubility ([4]; Conditions B): >14000 µg/mL
SMILES: COc1ccc(CCC[C@@H](C(=O)N2CCOCC2)[C@H](N)C(=O)O)cc1 [Example 14, (3S-Amino-4-hydroxy-2R-(4-methoxy)phenpropyl)succinyl-morpholinamide]

Ki [1]: 6400 nM
Ki [2]: 94 nM
Ki [3]: 2400 nM
solubility ([4]; Conditions B): > 9600 µg/mL
SMILES: COc1ccc(CCC[C@@H](C(=O)N2CCOCC2)[C@H](N)C(=O)NO)cc1 [Example 16, (3S-Amino-4-hydroxyamino-2R-(4-methoxy)phenpropyl)succinyl-morpholinamide]

Ki [1]: 850 nM
Ki [2]: 79 nM
Ki [3]: 860 nM
solubility ([4]; Conditions B): > 9600 µg/mL
SMILES: COc1ccc(CCC[C@@H](C(=O)N2CCCCC2)[C@H](N)C(=O)NO)cc1 [Example 18, (3S-Amino-4-hydroxyamino-2R-(4-methoxy)phenpropyl)succinyl-piperidinamide]

Ki [1]: 4500 nM
Ki [2]: 230 nM
Ki [3]: 1100 nM
solubility ([4]; Conditions A): 7500 µg/mL (≈ 19.1 mM)
AUC [5]: 9380 ng·h/mL
clearance [5]: 27 mL/min/kg
SMILES: COc1ccc(CCC[C@@H](C(=O)N2CCOCC2)[C@@H](C(=O)NO)N(C)C)cc1 [Example 19, (3S-N,N-Dimethylamino-4-hydroxyamino-2R-(4-methoxy)phenpropyl)succinyl-morpholinamide]

Second part, the molecule before the results:

SMILES: CC(C)C[C@@H](C(=O)N1CCCCC1)[C@H](NC(=O)OC(C)(C)C)C(=O)NO [Example 2, (3S-tert-Butoxycarbonylamino-4-hydroxyamino-2R-isobutyl)succinyl-piperidinamide]
Ki [1]: 1100 nM
Ki [2]: 2800 nM
Ki [3]: 13000 nM
solubility ([4]; Conditions A): > 4500 µg/mL

SMILES: CC(C)C[C@@H](C(=O)N1CCCCC1)[C@H](N)C(=O)NO [Example 3, (3S-Amino-4-hydroxyamino-2R-isobutyl)succinyl-piperidinamide]
Ki [1]: 88 nM
Ki [2]: 290 nM
Ki [3]: 2500 nM
solubility ([4]; Conditions A): > 9500 µg/mL

SMILES: CC(C)C[C@@H](C(=O)N1CCCCC1)[C@@H](C(=O)NO)N(C)C [Example 5, (3SN,N-Dimethylamino-4-hydroxyamino-2R-isobutyl)succinyl-piperidinamide]
Ki [1]: 61 nM
Ki [2]: 310 nM
Ki [3]: 940 nM
solubility ([4]; Conditions B): > 6000 µg/mL

SMILES: COc1ccc(CCC[C@@H](C(=O)N2CCOCC2)[C@H](NC(=O)OC(C)(C)C)C(=O)O)cc1 [Example 13, (3S-tert-Butoxycarbonylamino-4-hydroxy-2R-(4-methoxy)phenpropyl)succinyl-morpholinamide]
Aqueous solubility ([4]; Conditions A): 6710 µg/mL

SMILES: N[C@H](C(=O)NO)[C@@H](CC1CCCC1)C(=O)N1CCCCC1 [Example 22, (3S-Amino-2R-cyclopentylmethyl-4-hydroxyamino)succinyl-piperidinamide]
Ki [1]: 15 nM
Ki [2]: 67 nM
Ki [3]: 730 nM
solubility ([4]; Conditions B): > 8200 µg/mL
bioavailability [6, 8]: 62%
Cmax ([6]; plasma, read-out: Cmax): 5490 ng/mL

SMILES: CS(=O)(=O)N[C@H](C(=O)NO)[C@@H](CC1CCCC1)C(=O)N1CCN(Cc2ccc3c(c2)OCO3)CC1 [Example 47, (2R-Cyclopentylmethyl-4-hydroxyamino-3S-(methylsulfonyl)amino)succinyl-(4-piperonyl)piperazinamide]
Ki [1]: 4.6 nM
Ki [2]: 28 nM
Ki [3]: 140 nM

SMILES: C[C@@H](NC(=O)[C@H](CC1CCCC1)[C@H](N)C(=O)NO)C1CCCCC1 [Example 50, (3S-Amino-2R-cyclopentylmethyl-4-hydroxyamino)succinyl-(1R-cyclohexylethyl)amide]
Ki [1]: 26 nM
Ki [2]: 58 nM
Ki [3]: 490 nM
Cmax [6]: 3146 ng/mL
% F (oral bioavailability) [6, 9]: 50%
Cmax [7]: 49516 ng/mL
% F (oral bioavailability) [7, 9]: 70%
